Results on 13 molecules are retold here after publication PMC4755858 (Biochemistry, 2016).

In experiment [1] the test system is wild-type ydaO riboswitch. Description: gel-shift. Type of experiment: binding, Bacillus subtilis. As to conditions: for binding energy weaker than the corresponding deoxy variant: 2’-fluoro versus 2’-deoxy analog (c-dA-AMP or c-di-dAMP); for ΔΔGbind: ΔGbind(analog) − ΔGbind(c-di-AMP); for binding to ydaO riboswitch (in words): competition gel-shift, highest analog concentration tested (≥200 µM).

The target of experiment [2] is T1, phosphodiesterase protein GdpP (GdpP84–659) (Bacillus subtilis, UniProt P37484). As to the kind of experiment: HPLC phosphodiesterase assay, degradation rates of c-di-AMP and analogs. Type of experiment: biochemical. As to conditions: for Fold Change: hydrolysis rate relative to c-di-AMP (fold slower); for degradation by GdpP (in words): HPLC assay, incubation up to 24 h.
T1 sequence (P37484 84-659): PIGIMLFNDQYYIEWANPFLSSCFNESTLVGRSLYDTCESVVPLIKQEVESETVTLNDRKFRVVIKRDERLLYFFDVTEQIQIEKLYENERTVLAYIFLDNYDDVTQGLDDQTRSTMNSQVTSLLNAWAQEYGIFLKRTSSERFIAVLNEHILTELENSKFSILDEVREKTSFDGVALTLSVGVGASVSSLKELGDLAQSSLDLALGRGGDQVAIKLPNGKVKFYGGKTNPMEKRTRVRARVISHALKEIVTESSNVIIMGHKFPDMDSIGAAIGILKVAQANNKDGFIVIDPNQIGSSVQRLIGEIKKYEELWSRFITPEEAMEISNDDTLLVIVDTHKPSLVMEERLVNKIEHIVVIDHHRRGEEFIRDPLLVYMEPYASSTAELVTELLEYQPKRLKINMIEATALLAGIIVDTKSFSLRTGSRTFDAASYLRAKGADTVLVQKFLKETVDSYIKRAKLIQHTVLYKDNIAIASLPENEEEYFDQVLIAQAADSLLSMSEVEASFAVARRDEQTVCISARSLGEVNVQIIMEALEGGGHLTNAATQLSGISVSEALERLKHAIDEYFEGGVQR

The target of experiment [3] is ydaO riboswitch ΔSite1 mutant. Description: gel-shift binding to ydaO binding-site mutant ΔSite1. The conditions noted are these: for Kd: read-out: Ligand Kd; for Kd / fold loss in affinity compared to native ligand: ΔSite1 construct; for fold loss in affinity compared to native ligand: versus c-di-AMP.
For experiment [4], the target named is ydaO riboswitch ΔSite2 mutant. As to the kind of experiment: gel-shift binding to ydaO binding-site mutant ΔSite2. The conditions noted are these: for Kd: read-out: Ligand Kd; for Kd / fold loss in affinity compared to native ligand: ΔSite2 construct; for fold loss in affinity compared to native ligand: versus c-di-AMP.
Experiment [5] concerns the target phosphodiesterase protein GdpP (Bacillus subtilis, UniProt P37484). Description: competition phosphodiesterase assay. The conditions noted are these: for Fold Change: Ki relative to Km of c-di-AMP (130 µM); for effect on c-di-AMP degradation by GdpP (in words): excess unlabeled competitor analog.
Experiment [6] deals with T1, phosphodiesterase protein GdpP (GdpP84–659). Description: steady-state kinetics. In kind it is biochemical.
The subject of experiment [7] is wild-type ydaO riboswitch. As to conditions: cited from earlier work.
Experiment [8] concerns ydaO riboswitch ΔSite1 mutant. The conditions noted are these: cited from earlier work.
The target of experiment [9] is T1, phosphodiesterase protein GdpP (GdpP84–659). The conditions noted are these: cited from earlier work.
Experiment [10] deals with ydaO riboswitch Site 1U construct. As to the kind of experiment: gel-shift binding to ydaO G-U mutant Site 1U.
The subject of experiment [11] is ydaO riboswitch Site 2U construct. Description: gel-shift binding to ydaO G-U mutant Site 2U.
Experiment [12] has as its system ydaO riboswitch, both binding sites mutated. Description: gel-shift binding to ydaO construct with both binding sites mutated. The conditions noted are these: both binding sites mutated in a single construct.
Setting [13] is: loss in affinity for wild-type ydaO relative to c-di-AMP.

SMILES strings stand for the structures. Like-named read-outs stand apart in the source and are kept apart here.

Sequence of phosphodiesterase protein GdpP (P37484 84-659): as above

`Nc1ncnc2c1ncn2[C@@H]1O[C@@H]2COP(=O)(O)O[C@H]3[C@@H](F)[C@H](n4cnc5c(N)ncnc54)O[C@@H]3COP(=O)(O)O[C@H]2[C@H]1O` [c-2’F-A-AMP]: the “Fold Loss” value in [1] is 47. Also, in [1] (wild-type ydaO), the “binding energy weaker than the corresponding deoxy variant” value is listed as roughly 0.5 kcal/mol and the ΔΔGbind worked out at 2.3 kcal/mol. In experiment [2], the “Fold Change” value turned out to be 24.

Consider `COC1C2OP(=O)(O)OCC3OC(n4cnc5c(N)ncnc54)C(O)C3OP(=O)(O)OCC2OC1n1cnc2c(N)ncnc21` (centres unmarked) [c-2’OMe-A-AMP], for which the “Fold Loss” value in experiment [1] amounted to 620. The “Fold Change” value in experiment [2] stood at 30.

On to `Nc1ncnc2c1ncn2[C@@H]1O[C@@H]2CO[P@@](=O)(S)O[C@H]3[C@@H](O)[C@H](n4cnc5c(N)ncnc54)O[C@@H]3CO[P@@](=O)(S)O[C@H]2[C@H]1O` [c-(RpRp)-di-Aps], for which, in experiment [1] (setting [13]), the “Fold Loss” value is 1.8. For the same molecule, in [1] (wild-type ydaO), the ΔΔGbind is recorded as 0.4 kcal/mol. In experiment [2], the “degradation by GdpP (in words)” value is reported as “No detectable degradation” and the “Fold Change” value is listed as no less than 4100. Further, in [3], the Kd (commonly the constant that tells how readily two partners part at equilibrium) was determined as 0.0113 ± 0.0008 µM and the “fold loss in affinity compared to native ligand” value (from here on “fold loss … to native ligand”) was 2 fold. In [4], the Kd amounted to 0.0062 ± 0.0005 µM and the “fold loss … to native ligand” value is 2 fold. Also, in experiment [5], the Ki (as a rule, a dissociation constant, usually derived from enzyme kinetics or from competition with a known ligand) was 260 ± 2.7 µM and the “Fold Change” value stood at 2.0. Moreover, the “Fold Change” value in experiment [5] (listed as RpRp) is no more than 2.

Take `Nc1ncnc2c1ncn2[C@@H]1O[C@@H]2CO[P@@](=O)(S)O[C@H]3[C@@H](O)[C@H](n4cnc5c(N)ncnc54)O[C@@H]3CO[P@](=O)(S)O[C@H]2[C@H]1O` [c-(RpSp)-di-Aps]: the “Fold Loss” value in experiment [1] (setting [13]) was determined as 2.9. For the same molecule, the ΔΔGbind in [1] (wild-type ydaO) was 0.6 kcal/mol. The “degradation by GdpP (in words)” value in experiment [2] is recorded as “No detectable degradation”. For the same molecule, the “Fold Change” value in experiment [2] is reported as no less than 4100; in experiment [5], 1.6; in experiment [5] (listed as RpSp) it was no more than 2. For the same molecule, the figures for the Kd in experiment [3] and in experiment [4] were 0.0094 ± 0.0011 µM and 0.0054 ± 0.0004 µM, respectively. Besides, the “fold loss … to native ligand” value in [3] and in experiment [4] was 2 fold in each case. The same molecule gave a Ki in [5] of 210 ± 17 µM.

Turning to `Nc1ncnc2c1ncn2[C@@H]1O[C@@H]2COP(=O)(O)O[C@H]3[C@@H](O)[C@H](n4cnc5c(=O)[nH]cnc54)O[C@@H]3COP(=O)(O)O[C@H]2[C@H]1O` [c-AMP-IMP], in experiment [1] (wild-type ydaO), the ΔΔGbind is 4.3 kcal/mol. For the same molecule, the “Fold Change” value in experiment [2] is listed as 3.3.

Consider `Nc1ncnc2c1ncn2[C@@H]1O[C@@H]2COP(=O)(O)O[C@H]3C[C@H](n4cnc5c(N)ncnc54)O[C@@H]3COP(=O)(O)O[C@H]2[C@H]1F` [c-dA-2’F-A], for which the “Fold Loss” value in [1] (setting [13]) was found to be 530. Besides, in [1] (wild-type ydaO), the “improvement in binding energy by replacing a 2’-fluoro substituent with a 2’-deoxy group” value is roughly 1.4 kcal/mol and the ΔΔGbind is on record as 3.7 kcal/mol. The “Fold Change” value in experiment [2] is on record as no less than 4100. Further, in experiment [5], the Ki came out at 9.4 ± 0.8 µM, the “Fold Change” value is listed as 0.07 and the “effect on c-di-AMP degradation by GdpP (in words)” value (shortened to “effect on c-di-AMP degradation”) is “reduced degradation velocity”.

Consider `Nc1ncnc2c1ncn2C1CC2OP(=O)(O)OCC3OC(n4cnc5c(N)ncnc54)C(O)C3OP(=O)(O)OCC2O1` (centres unmarked) [c-dA-AMP], for which the “Fold Loss” value in [1] turned out to be 20. For the same molecule, the ΔΔGbind in experiment [1] (wild-type ydaO) worked out at 1.8 kcal/mol. Further, the “Fold Change” value in experiment [2] is 1.2. Further, the “effect on c-di-AMP degradation” value in [5] was “measurable deficiency in linearization”.

As to `Nc1ncnc2c1ncn2[C@@H]1O[C@@H]2COP(=O)(O)O[C@H]3[C@@H](F)[C@H](n4cnc5c(N)ncnc54)O[C@@H]3COP(=O)(O)O[C@H]2[C@H]1F` [c-di-2’F-AMP], in [1] (wild-type ydaO), the “binding energy weaker than the corresponding deoxy variant” value is on record as “more than 1.7 kcal/mol” and the ΔΔGbind was 5.1 kcal/mol. Besides, the “Fold Loss” value in [1] (setting [13]) is on record as 5100. In experiment [2], the “Fold Change” value is reported as no less than 4100. Also, in experiment [5], the Ki stood at 26 ± 3.6 µM, the “Fold Change” value stood at 0.2 and the “effect on c-di-AMP degradation” value is on record as “reduced degradation velocity”.

`CO[C@@H]1[C@@H]2OP(=O)(O)OC[C@H]3O[C@@H](n4cnc5c(N)ncnc54)[C@H](OC)[C@@H]3OP(=O)(O)OC[C@H]2O[C@H]1n1cnc2c(N)ncnc21` [c-di-2’OMe-AMP]: the “binding to ydaO riboswitch (in words)” value in [1] is given as “no detectable affinity”. The “Fold Loss” value in experiment [1] (setting [13]) is listed as > 2.9 × 10^6. The ΔΔGbind in experiment [1] (wild-type ydaO) is listed as greater than 8.8 kcal/mol. The “Fold Change” value in experiment [2] is recorded as no less than 4100. Besides, in experiment [5], the Ki was 15 ± 2.5 µM, the “Fold Change” value worked out at 0.12 and the “effect on c-di-AMP degradation” value is on record as “reduced degradation velocity”.

Regarding `Nc1ncnc2c1ncn2[C@@H]1O[C@@H]2COP(=O)(O)O[C@H]3[C@@H](O)[C@H](n4cnc5c(N)ncnc54)O[C@@H]3COP(=O)(O)O[C@H]2[C@H]1O` [c-di-AMP, (3’-5’)-cyclic diadenosine monophosphate], the Hill coefficient (as a rule, a measure of the steepness of the concentration-response curve) is listed as 1.6 in [1] (c-di-AMP binding curve, wild-type ydaO, cooperative binding model); 1 in [10] (Site 1U construct); 1 in experiment [11] (Site 2U construct); 1 in experiment [3] (ΔSite1 mutant); 1 in experiment [4] (ΔSite2 mutant). In addition, the “initial rate of hydrolysis” value in [2] (100 µM substrate, 1 µM GdpP) is 4.1 min⁻¹. The “degradation of c-di-AMP after 60 min (in words)” value in experiment [2] (HPLC traces, experimental conditions used) was “completely degraded”. In addition, the Km – broadly, the concentration of substrate that gives half-maximal velocity – in experiment [6] (c-di-AMP as substrate of GdpP) came out at 130 µM. For the same molecule, the “rate of c-di-AMP hydrolysis (kcat)” value in [6] (steady-state, substrate 3 to 800 µM, 200 nM GdpP) was 0.26 ± 0.02 s⁻¹. In [6] (used in Ki equation), the “Vmax, maximum reaction velocity” value came out at 15.6 min⁻¹. In experiment [7], the “selectivity of ydaO binding over c-di-GMP and c-AMP-GMP” value is “more than 100,000 fold”. Moreover, the “binding to Site 2 when Site 1 was mutated (in words)” value in experiment [8] is recorded as “No measurable binding”. The “rate of c-di-AMP hydrolysis, previously published value” in [9] is 0.55 ± 0.02 s⁻¹. In addition, the “fold lower affinity than the ΔSite mutants” value in [10] (Site 1U (G-U wobble) construct) and in [11] (Site 2U (G-U wobble) construct) was “less than 10 fold” each time. Besides, the values for the Kd in [3] and in [4] were 0.0055 ± 0.0003 µM and 0.0033 ± 0.0005 µM, respectively. Moreover, in [4] (ΔSite2 mutant versus wild-type), the “fold loss in affinity compared with wild-type ydaO” value came out at 6 fold. Also, the “affinity for the riboswitch (in words)” value in experiment [12] is “disrupted c-di-AMP affinity”.

For `Nc1nc2c(ncn2[C@@H]2O[C@@H]3COP(=O)(O)O[C@H]4[C@@H](O)[C@H](n5cnc6c(=O)[nH]c(N)nc65)O[C@@H]4COP(=O)(O)O[C@H]3[C@H]2O)c(=O)[nH]1` [c-di-GMP, (3’-5’)-cyclic diguanosine monophosphate, reference compound], in experiment [1], the “binding to ydaO riboswitch (in words)” value was “no detectable binding”. Besides, in experiment [1] (wild-type ydaO), the ΔΔGbind is given as greater than 10 kcal/mol.

Regarding `O=c1[nH]cnc2c1ncn2[C@@H]1O[C@@H]2COP(=O)(O)O[C@H]3[C@@H](O)[C@H](n4cnc5c(=O)[nH]cnc54)O[C@@H]3COP(=O)(O)O[C@H]2[C@H]1O` [c-di-IMP], in experiment [1] (setting [13]), the “Fold Loss” value is 3600. In addition, the ΔΔGbind in experiment [1] (wild-type ydaO) is 4.9 kcal/mol. Further, in experiment [2], the “Fold Change” value is reported as no less than 4100.

As to `Nc1ncnc2c1ncn2[C@H]1C[C@@H]2OP(=O)(O)OC[C@H]3O[C@@H](n4cnc5c(N)ncnc54)C[C@@H]3OP(=O)(O)OC[C@H]2O1` [c-di-dAMP], in [1] (setting [13]), the “Fold Loss” value is 290. The ΔΔGbind in experiment [1] (wild-type ydaO) worked out at 3.4 kcal/mol. Moreover, the “Fold Change” value in [2] is recorded as no less than 4100. In addition, the “loss in ligand affinity” value in experiment [7] (previously reported) is given as “up to 100 fold”. In [5], the affinity corresponds to a Ki of 200 ± 18 µM, the “Fold Change” value came to 1.5 and the “effect on c-di-AMP degradation” value is reported as “reduced degradation velocity”.
